Tested on: K24384-001-R-PDC complex spheroid growth
Test: Anticancer human tumor K24384-001-R-PDC patient-derived pancreatic adenocarcinoma cell line growth inhibition [AhR]
Conditions: for IC50: curve of first compound; for viability, T/C: stronger effect = lower value
Excerpt: Multicellular complex tumor spheroid response to aryl hydrocarbon receptor antagonists in combination with a variety of drugs and investigational agents in selected tumor cell lines
The current study was undertaken to assess response to aryl hydrocarbon receptor antagonists in combination with standard-of-care drugs and investigational agents in solid tumor complex spheroid models. Complex spheroids include a stromal component modeled by human endothelial cells (HUVEC) and fibroblasts modeled by human mesenchymal stem cells (MSCs). The concentration ranges selected for each drug and investigational agent were based upon clinically achievable concentrations if the clinical Cmax of the agent was known.
Compounds. The drugs and investigational agents: BAY 2416964 (NSC825713), GNF351 (NSC835774), CH-223191 (NSC835775), CPI-455 (NSC825282), aza-TdCyd (NSC777586), decitabine (NSC127716), belinostat (NSC758774), entinostat (NSC756642), pevonedistat (NSC761192), tazemetostat (NSC777109), talazoparib (NSC765396), olaparib (NSC753686), selinexor (NSC780203), nedisertib (M3814, NSC802822), bortezomib (NSC756655), venetoclax (NSC766270), doxorubicin (NSC123127), elimusertib (BAY189344, NSC800525), ceralasertib (AZD6738, NSC777638), TAK-243 (NSC785004), alisertib (NSC759677), etoposide (NSC141540), topotecan (NSC609699), eribulin (NSC707389), gemcitabine (NSC613327), carboplatin (NSC241240), cisplatin (NSC119875), and SN-38 (NSC673596) were obtained from the National Cancer Institute (NCI) Developmental Therapeutics Program Chemical Repository (32). The FDA-approved anticancer drug set is available from the Developmental Therapeutics Program at https://dtp.cancer.gov/organization/dscb/obtaining/available plates.htm. […] The stock solutions were prepared in dimethyl sulfoxide (DMSO, Sigma-Aldrich, St. Louis, MO, cat. D2650), except for the platinum compounds which were prepared in saline (Quality Biological, Gaithersburg, MD, cat. 114-055-101), at 800-fold the tested concentration and stored at -70 degrees C prior to their use. All drugs and investigational agents were tested over a range starting from a high concentration at or near the clinical Cmax and decreasing in half-log increments. If the clinical Cmax for an agent had not been determined, the highest concentration tested was 10 microM (Table 1).
Cell Culture. All cells were maintained in an incubator at 37 degrees C and 5% CO2 with 95% humidity. The PDC lines were cultured according to standard operating procedures established by the NCI PDMR (https://pdmr.cancer.gov). Briefly, all PDCs were thawed and cultured in Matrigel-coated flasks prepared with a working solution of 1X Ham's F-12 nutrient mix, without supplementation (Invitrogen, Waltham, MA, cat. 11765054), 100 U/mL penicillin-streptomycin (Invitrogen, cat. 15140122), and 2.5% Matrigel (Corning Inc., Corning, NY, cat. 354248) for the first three passages. All PDCs were cultured in complete DMEM/F-12 media containing advanced DMEM/F-12 (Invitrogen, cat. 12634028), 4.9% defined fetal bovine serum, heat inactivated (HyClone Laboratories Inc., Logan, UT, cat. SH30070.03HI), 389 ng/mL hydrocortisone (Sigma-Aldrich, cat. H4001), 9.7 ng/mL human EGF recombinant protein (Invitrogen, cat. PHG0313), 23.4 microg/mL adenine (Sigma-Aldrich, cat. A2786), 97.3 U/mL penicillin-streptomycin (Invitrogen, cat. 15140122), 1.9 mM L-glutamine (Invitrogen, cat. 25030081), and 9.7 microM Y-27632 dihydrochloride (Tocris Bioscience, Bristol, United Kingdom, cat. 1254). The PDCs were cultured in complete DMEM/F12 media without 10 microM Y-27632 dihydrochloride for at least two passages prior to the screen. The established cell lines NCI-H1341 and […] were cultured in DMEM/F-12, HEPES (Invitrogen, cat. 11330032), 5% defined fetal bovine serum (HyClone Laboratories Inc., cat. SH30070.03), ITS premix universal culture supplement [insulin (5 microg/mL), transferrin (5 microg/mL), and selenious acid (5 ng/mL)] […]

[1] = second compound 0.1 µM, first compound 0.0316 µM
[2] = second compound 0.1 µM, first compound 0.1 µM
[3] = second compound 0.316 µM, first compound 0.0316 µM
[4] = second compound 0.316 µM, first compound 0.1 µM
[5] = second compound 1 µM, first compound 0.0316 µM
[6] = second compound 1 µM, first compound 0.1 µM
[7] = second compound 3.16 µM, first compound 0.0316 µM
[8] = second compound 3.16 µM, first compound 0.1 µM
[9] = second compound 10 µM, first compound 0.0316 µM
[10] = second compound 10 µM, first compound 0.1 µM
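Throughout, for viability, T/C: percent of DMSO vehicle-treated spheroid viability set as 100%.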

Molecule `CC[C@@]1(O)C(=O)OCc2c1cc1n(c2=O)Cc2cc3c(CN(C)C)c(O)ccc3nc2-1` + CC(CO)NC(=O)c1cc(-c2ccc(Cl)cc2)nn(-c2cnn(C)c2)c1=O has an IC50 (second compound 0.1 µM) of 76.3 nM, an IC50 (second compound 0.316 µM) of 47.9 nM and an IC50 (second compound 1 µM) of 31.7 nM. The IC50 (second compound 3.16 µM) was 42 nM, the IC50 (second compound 10 µM) was > 100 nM and the viability, T/C (second compound 0.1 µM, first compound 0.000316 µM) was 103%. It also gave a viability, T/C (second compound 0.1 µM, first compound 0.001 µM) of 101%, a viability, T/C (second compound 0.1 µM, first compound 0.00316 µM) of 100% and a viability, T/C (second compound 0.1 µM, first compound 0.01 µM) of 87.7%. For the same molecule, the viability, T/C [1] was 64%, the viability, T/C [2] was 45.7% and the viability, T/C (second compound 0.316 µM, first compound 0.000316 µM) was 93.4%. The viability, T/C (second compound 0.316 µM, first compound 0.001 µM) was 111%, the viability, T/C (second compound 0.316 µM, first compound 0.00316 µM) was 99% and the viability, T/C (second compound 0.316 µM, first compound 0.01 µM) was 84.2%. For the same molecule, the viability, T/C [3] was 54.7%, the viability, T/C [4] was 42.2% and the viability, T/C (second compound 1 µM, first compound 0.000316 µM) was 94.2%. For the same molecule, the viability, T/C (second compound 1 µM, first compound 0.001 µM) was 120%, the viability, T/C (second compound 1 µM, first compound 0.00316 µM) was 104% and the viability, T/C (second compound 1 µM, first compound 0.01 µM) was 71.2%. It also gave a viability, T/C [5] of 57.3%, a viability, T/C [6] of 39.8% and a viability, T/C (second compound 3.16 µM, first compound 0.000316 µM) of 114%. For the same molecule, the viability, T/C (second compound 3.16 µM, first compound 0.001 µM) was 103%, the viability, T/C (second compound 3.16 µM, first compound 0.00316 µM) was 90.9% and the viability, T/C (second compound 3.16 µM, first compound 0.01 µM) was 71.8%. It also gave a viability, T/C [7] of 53.5%, a viability, T/C [8] of 39.1% and a viability, T/C (second compound 10 µM, first compound 0.000316 µM) of 87.6%. The viability, T/C (second compound 10 µM, first compound 0.001 µM) was 81.9%, the viability, T/C (second compound 10 µM, first compound 0.00316 µM) was 100% and the viability, T/C (second compound 10 µM, first compound 0.01 µM) was 67.3%. The viability, T/C [9] was 52% and the viability, T/C [10] was 49.8%.

`CCc1c2c(nc3ccc(O)cc13)-c1cc3c(c(=O)n1C2)COC(=O)[C@]3(O)CC` + CC(CO)NC(=O)c1cc(-c2ccc(Cl)cc2)nn(-c2cnn(C)c2)c1=O showed an IC50 (second compound 0.1 µM) of 9.38 nM, an IC50 (second compound 0.316 µM) of 6.85 nM and an IC50 (second compound 1 µM) of 8.65 nM. The IC50 (second compound 3.16 µM) was 11.5 nM, the IC50 (second compound 10 µM) was 19.8 nM and the viability, T/C (second compound 0.1 µM, first compound 0.000949 µM) was 53.8%. The viability, T/C (second compound 0.1 µM, first compound 0.003 µM) was 58.1%, the viability, T/C (second compound 0.1 µM, first compound 0.00949 µM) was 52.2% and the viability, T/C (second compound 0.1 µM, first compound 0.03 µM) was 36.1%. The viability, T/C (second compound 0.1 µM, first compound 0.0949 µM) was 40.8%, the viability, T/C (second compound 0.1 µM, first compound 0.3 µM) was 26.7% and the viability, T/C (second compound 0.316 µM, first compound 0.000949 µM) was 70.6%. For the same molecule, the viability, T/C (second compound 0.316 µM, first compound 0.003 µM) was 53.1%, the viability, T/C (second compound 0.316 µM, first compound 0.00949 µM) was 48.9% and the viability, T/C (second compound 0.316 µM, first compound 0.03 µM) was 38.2%. It also gave a viability, T/C (second compound 0.316 µM, first compound 0.0949 µM) of 34.6%, a viability, T/C (second compound 0.316 µM, first compound 0.3 µM) of 25% and a viability, T/C (second compound 1 µM, first compound 0.000949 µM) of 63.5%. The viability, T/C (second compound 1 µM, first compound 0.003 µM) was 56.4%, the viability, T/C (second compound 1 µM, first compound 0.00949 µM) was 51.5% and the viability, T/C (second compound 1 µM, first compound 0.03 µM) was 34.8%. It also gave a viability, T/C (second compound 1 µM, first compound 0.0949 µM) of 27.9%, a viability, T/C (second compound 1 µM, first compound 0.3 µM) of 21% and a viability, T/C (second compound 3.16 µM, first compound 0.000949 µM) of 55.8%. The viability, T/C (second compound 3.16 µM, first compound 0.003 µM) was 52.6%, the viability, T/C (second compound 3.16 µM, first compound 0.00949 µM) was 54.6% and the viability, T/C (second compound 3.16 µM, first compound 0.03 µM) was 34.6%. The viability, T/C (second compound 3.16 µM, first compound 0.0949 µM) was 26.6%, the viability, T/C (second compound 3.16 µM, first compound 0.3 µM) was 19.3% and the viability, T/C (second compound 10 µM, first compound 0.000949 µM) was 63.9%. It also gave a viability, T/C (second compound 10 µM, first compound 0.003 µM) of 54.4%, a viability, T/C (second compound 10 µM, first compound 0.00949 µM) of 57.3% and a viability, T/C (second compound 10 µM, first compound 0.03 µM) of 47%. The viability, T/C (second compound 10 µM, first compound 0.0949 µM) was 30.3% and the viability, T/C (second compound 10 µM, first compound 0.3 µM) was 19.4%.

Molecule `Nc1ccn(C2OC(CO)C(O)C2(F)F)c(=O)n1` (stereo not given) + CC(CO)NC(=O)c1cc(-c2ccc(Cl)cc2)nn(-c2cnn(C)c2)c1=O has an IC50 (second compound 0.1 µM) of 570 nM, an IC50 (second compound 0.316 µM) of 666 nM and an IC50 (second compound 1 µM) of 767 nM. It also gave an IC50 (second compound 3.16 µM) of 841 nM, an IC50 (second compound 10 µM) of 1170 nM and a viability, T/C [1] of 81.9%. For the same molecule, the viability, T/C [2] was 90.8%, the viability, T/C (second compound 0.1 µM, first compound 0.316 µM) was 65.8% and the viability, T/C (second compound 0.1 µM, first compound 1 µM) was 35.6%. For the same molecule, the viability, T/C (second compound 0.1 µM, first compound 3.16 µM) was 31.8%, the viability, T/C (second compound 0.1 µM, first compound 10 µM) was 28.1% and the viability, T/C [3] was 92.2%. For the same molecule, the viability, T/C [4] was 92.5%, the viability, T/C (second compound 0.316 µM, first compound 0.316 µM) was 70.7% and the viability, T/C (second compound 0.316 µM, first compound 1 µM) was 38.6%. The viability, T/C (second compound 0.316 µM, first compound 3.16 µM) was 30.7%, the viability, T/C (second compound 0.316 µM, first compound 10 µM) was 27% and the viability, T/C [5] was 90.9%. The viability, T/C [6] was 77.4%, the viability, T/C (second compound 1 µM, first compound 0.316 µM) was 69.8% and the viability, T/C (second compound 1 µM, first compound 1 µM) was 45.3%. The viability, T/C (second compound 1 µM, first compound 3.16 µM) was 26.7%, the viability, T/C (second compound 1 µM, first compound 10 µM) was 26.4% and the viability, T/C [7] was 77.5%. The viability, T/C [8] was 79.8%, the viability, T/C (second compound 3.16 µM, first compound 0.316 µM) was 72.4% and the viability, T/C (second compound 3.16 µM, first compound 1 µM) was 45.6%. For the same molecule, the viability, T/C (second compound 3.16 µM, first compound 3.16 µM) was 30.1%, the viability, T/C (second compound 3.16 µM, first compound 10 µM) was 24.8% and the viability, T/C [9] was 82.9%. For the same molecule, the viability, T/C [10] was 80.5%, the viability, T/C (second compound 10 µM, first compound 0.316 µM) was 81.6% and the viability, T/C (second compound 10 µM, first compound 1 µM) was 52.3%. For the same molecule, the viability, T/C (second compound 10 µM, first compound 3.16 µM) was 36% and the viability, T/C (second compound 10 µM, first compound 10 µM) was 33.9%.

— PubChem BioAssay AID1919009 (Molecular Pharmacology Branch, DTP, NCI, 2023)
